For series [1] the following is noted: experimental animals and humans; cited from earlier work.
The test system of series [2] is SS cells. Nature of the series: Antisickling activity under anoxia (100% N2). It counts as cell-based, human. Conditions: 2 mM, 100% N2 gas, 30 min. The text has this: Therefore, another objective in the targeted design of VZHE-039 was to complement its O2-dependent antisickling activity—common to this class of aromatic aldehydes—with an improved O2-independent antisickling activity through proximity-enhanced auxiliary interactions with the αF-helix. Findings from the VZHE-039 crystallographic studies indicate that we achieved the structural objective of enhanced interactions between the methylhydroxy substituent and the αF-helix. We further asked whether these enhanced interactions would translate to an improvement in the O2-independent antisickling activity—as hypothesized. We therefore explored the potential O2-independent activity of VZHE-039, by testing its antisickling properties under complete deoxygenated/anoxic conditions (i.e., 100% N2). […] For internal control purposes, aliquots from samples used for testing for antisickling studies at 2.5% O2 (see above) were also used for testing the antisickling effect of these compounds under 100% N2 gas, therefore, helping elucidate the antisickling effects due to O2-dependent activity of the compounds. Since this experimental design utilized aliquots of the same samples under different gas conditions, it ensured that the assay was free of any potential errors associated with variability in hematocrit and accuracy in drug concentrations.
We conducted two studies to test the antisickling property of VZHE-039 under anoxia to establish the secondary mechanism of action. In the first study, we conducted antisickling studies as described above and also previously reported (2.5% O2)[33], using 2 mM concentrations of VZHE-039, and the controls vanillin, TD-7 and Voxelotor. After 1 h, aliquot samples were fixed with 2% glutaraldehyde without exposure to air. Then the incubation chamber was opened and exposed to air for 15 min to ensure complete re-oxygenation and reversal of the sickled cells to normal round cells. Reversal was confirmed by microscopy. The incubation chamber was then closed, and the assay was repeated under 100% nitrogen gas for 30 min, at which point aliquots were obtained and fixed. Aliquot samples were then subjected to microscopic morphological analysis of bright field images as previously described. Resulting sickled cells (percentages) were compared across samples, and between aliquots of the same samples that had been obtained either under 2.5% oxygen or 100% nitrogen.

Series [3] has as its target T1, HbS (Homo sapiens, UniProt P69905).
T1 construct: whole blood suspensions from subjects with homozygous SCD (Hct of 20%); from tissue; host or cells: whole blood / red blood cells of patients with homozygous SS sickle cell disease; lysate for HPLC and OEC
Description: Hb modification (HbS adduct formation) by cation-exchange HPLC of lysates from SS cells. Conditions: for Hb Modification: SS cells, 20% hematocrit, HPLC of hemolysates. It counts as cell-based. The method, then: (§1) For our previously studied compounds (e.g., INN-312, TD-7, SAJ-310, INN-298) that incorporate methoxyPy substitution to vanillin analogs, we observed a significant increase in functional and biological activity as a result of increased protein interactions[31],[33],[35],[36]. We therefore expected similar effects for VZHE-039, which we tested by following VZHE-039 activity (measured by Hb adduct formation, P50-shift and RBC sickling inhibition) using SS blood. Briefly, we incubated 0.5, 1, and 2 mM concentrations of VZHE-039 with whole blood suspensions from subjects with homozygous SCD (Hct of 20%) under hypoxic conditions (2.5% O2/97.5% N2) at 37 °C for 2 h for expected peak adduct. Aliquot blood samples were drawn into a fixative (2% glutaraldehyde solution), and sickling was assessed by microscopy[31],[33],[35],[36]. Aliquot samples were also subjected to cation-exchange HPLC analyses to assess the degree of Hb modification to the high-affinity adduct form (Hb adduct formation), as well as standard O2 equilibrium curves (OEC) to assess P50-shifts using hemox analyzer[31],[33],[35],[36]. […] The improved potency of Voxelotor has been attributed to reduced binding stoichiometry, i.e. while Voxelotor binds Hb at a 1:1 ratio, VZHE-039 binds Hb at a 2:1 ratio. […] This observation, as will be discussed later is likely due to a meaningful contribution from the novel O2-independent antisickling activity as result of the strong contact with the αF-helix.
(§2) The effect of VZHE-039 on RBC sickling, Hb modification, and Hb oxygen equilibrium was studied utilizing samples from consented individuals with homozygous SCD following previous procedure. Briefly, blood suspended in Hemox buffer and supplemented with glucose and bovine serum albumin, to a final hematocrit of 20% were incubated under air in the absence or presence of 0.5 mM, 1 mM and 2 mM VZHE-039 at 37 °C for 1 h. This was followed by incubating the suspensions under hypoxic conditions (2.5% O2/97.5% N2) at 37 °C for 2 h. Aliquot samples were obtained and fixed with 2% glutaraldehyde solution without exposure to air, and then subjected to microscopic morphological analysis of bright field images (at × 40 magnification) of single layer cells on an Olympus BX40 microscope fitted with an Infinity 2 camera (Olympus), and the coupled Image Capture software. Leftover samples were washed in phosphate-buffer saline, and hemolyzed in hypotonic lysis buffer for subsequent Hb-modification and oxygen equilibrium analyses.
Finally, for the Hb adduct formation studies, the above clarified lysates were subjected to cation-exchange HPLC (Hitachi D-7000 Series, Hitachi Instruments, Inc., San Jose, CA), using a weak cation-exchange column (Poly CAT A: 30 mm × 4.6 mm, Poly LC, Inc., Columbia, MD). A commercial standard consisting of approximately equal amounts of composite HbF, HbA, HbS and HbC (Helena Laboratories, Beaumont, TX), was utilized as the reference for isotypes. The areas of new peaks, representing HbS adducts, were obtained, calculated as percentage fractions of total Hb area, and reported as levels of modified Hb.

The conditions of series [4]: cited from earlier work.
The target of series [5] is T2, Hb (Homo sapiens, UniProt P69905).
T2 construct: whole blood suspensions from subjects with homozygous SCD (Hct of 20%); from tissue; host or cells: whole blood / red blood cells of patients with homozygous SS sickle cell disease; lysate for HPLC and OEC
Nature of the series: Oxygen equilibrium (P50 shift) of lysates from SS cells, Hemox Analyzer. The class given is cell-based. Conditions: 20% hematocrit. The procedure: as §1, §2
For the oxygen equilibrium studies, 100 μL aliquot samples from the above clarified lysate were added to 4 mL of 0.1 M potassium phosphate buffer, pH 7.0, in cuvettes and subjected to hemoximetry analysis using a Hemox Analyzer (TCS Scientific Corp.) to determine the P50 values.

The subject of another series is SS RBCs. Description: pO2-dependent degree of sickling in Hemox Analyzer. The class given is cell-based, human. Conditions: 2 mM, Hct 20%. The method, then: In a confirmatory study, a pO2 dependent degree of sickling of VZHE-039 at 1 and 2 mM doses, with Voxelotor as a control was performed using a Hemox analyzer. […] Oksenberg et al.reported similar observations with Voxelotor[28], where the compound lost its potent antisickling activity at low pO2 values.
The second study established pO2 dependent degree of sickling of VZHE-039, with Voxelotor as a control. Concurrently, blood samples, hematocrit 20%, were incubated without any drug (control) or with 1, or 2 mM VZHE-039 at 37 °C for 1 h. A second control sample was incubated with 2 mM Voxelotor. At conclusion, 100 uL aliquots of each suspension were mixed with 2.5 mL Hemox buffer (pH 7.4, supplemented with antifoam), and transferred into the sample chamber of the Hemox Analyzer. Compressed air was then flushed through the sample to ensure complete oxygenation (at 150 mmHg). Nitrogen gas was then introduced into the sample chamber, and 50 uL aliquots were obtained and fixed at defined pO2 values. At conclusion, all fixed samples were subjected to microscopic analysis for their degree of sickling, and results were plotted using Prism Graph Pad software. The experiments were conducted in three replicates on different days, and mean and standard deviation values are reported.

For series [6], the system named is SS cells. Description: Antisickling study with SS cells under hypoxia (2.5% O2). The class given is cell-based, human. The conditions noted are these: Homo sapiens, 20% hematocrit, […] O2, 37 °C, read-out: Sickling Inhibition. The method, then:
as §1, §2

The target of series [7] is T1, HbS. More on the design: method as in PMID 30289405. The conditions noted are these: previously observed, cited from earlier work.
Series [8] deals with SS cells. More on the design: method as in PMID 30289405. Conditions: previously observed, cited from earlier work.
Another series concerns the target T3, HbA (Homo sapiens, UniProt P69905).
T3 construct: fresh normal adult whole blood (Hct of 30%); from tissue; host or cells: normal adult whole blood (red blood cells)
Nature of the series: In vitro time-dependent Hb oxygen equilibrium study using normal whole blood (tonometry). Conditions: 2 mM, Hct 30%, 37 °C. It counts as cell-based. The text has this:
The antisickling activity of aromatic aldehydes is dependent on Schiff-base interaction between the aldehyde moiety and the Hb αVal1 amines (Schiff-base adduct) and the increase in the protein affinity for oxygen[30]–[40]. […] To overcome this pharmacologic limitation, Tucaresol and Voxelotor, two potent antisickling agents utilized a ortho-hydroxyl moiety (relative to the aldehyde group) on the benzaldehyde ring to form intramolecular hydrogen-bond interaction with the aldehyde group to form hemiacetal-like moiety, which led to significant reduction in oxidative metabolism of the aldehyde[28],[50]. […] VZHE-039, however, incorporates this ortho-hydroxyl moiety on the benzene ring, which is expected to increase its oxidative metabolic stability. This was tested by incubating 2 mM of VZHE-039 (with vanillin and TD-7 as controls) with fresh normal adult whole blood (Hct of 30%) at 37 °C as a surrogate measure of oxidative metabolism. At defined time points (1, 4, 8, 12 and 24 h), aliquot samples were drawn, and subsequently analyzed for their P50-shifts relative to the initial P50 value, using three-point tonometry. In parallel, an untreated control sample was also assessed to control for any time-dependent, but drug-independent changes in P50 values. […] These findings confirm the importance of the ortho-hydroxyl group in aromatic aldehydes in preventing or reducing enzymatic metabolism of aldehyde in RBCs.
Normal whole blood samples (hematocrit 30%) in the absence (control) or presence of 2 mM concentration VZHE-039 (solubilized in DMSO) were incubated at 37 °C for 24 h with shaking (at 140 rpm). At 1, 4, 8, 12 and 24 h time intervals, aliquots of this mixture were removed and then subjected to OEC analysis using tonometry as previously described. Vanillin and TD-7 were used as positive controls, while DMSO was tested as negative control. Briefly, the compound-treated blood samples were incubated in IL 237 tonometers (Instrumentation Laboratories, Inc. Lexington, MA) for approximately 10 min at 37 °C, and allowed to equilibrate at oxygen tensions 6, 20, and 40 mmHg. The samples were then aspirated into an ABL 700 Automated Blood Gas Analyzer (Radiometer) to determine the pH, partial pressure of CO2 (pCO2), partial pressure of oxygen (pO2), and Hb oxygen saturation values (SO2). The measured values of pO2 (mmHg) and SO2 at each pO2 value were then subjected to a non-linear regression analysis using the program Scientist (Micromath, Salt Lake City, UT) to estimate P50 as previously reported.

The target of series [9] is T2, Hb. Further details: method as in PMID 30289405. Conditions: previously observed, cited from earlier work.

We go through four compounds from PMC7679387, “VZHE-039, a novel antisickling agent that prevents erythrocyte sickling under both hypoxic and anoxic conditions” (Scientific Reports, 2020).

Each structure is given as a SMILES string. “Also recorded” adds a separate entry of the source. Where two headings read alike, the source gives them in different places.

The inhibition is the change of the read-out against control, counted positive when it falls.

T3 sequence (P69905 2-142 limits assumed): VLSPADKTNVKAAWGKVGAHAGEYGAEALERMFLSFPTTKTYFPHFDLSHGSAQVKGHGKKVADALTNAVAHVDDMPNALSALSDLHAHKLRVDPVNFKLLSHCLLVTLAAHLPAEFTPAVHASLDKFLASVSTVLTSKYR
T3 sequence (P68871 2-147 partner limits assumed): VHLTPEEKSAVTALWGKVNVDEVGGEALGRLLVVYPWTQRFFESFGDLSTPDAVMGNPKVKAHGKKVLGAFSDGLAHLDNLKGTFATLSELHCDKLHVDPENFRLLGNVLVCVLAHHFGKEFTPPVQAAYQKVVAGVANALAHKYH
T1 sequence (P69905 2-142): as the sequence (P69905 2-142 limits assumed) above
T1 sequence (P68871 with tags, fused parts or gaps E7V partner): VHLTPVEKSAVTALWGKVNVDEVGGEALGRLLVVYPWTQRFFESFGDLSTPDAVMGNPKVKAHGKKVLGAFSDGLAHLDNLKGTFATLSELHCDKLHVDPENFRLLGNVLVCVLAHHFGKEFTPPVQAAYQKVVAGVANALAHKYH
T2 sequence (P69905 2-142): as the sequence (P69905 2-142 limits assumed) above
T2 sequence (P68871 with tags, fused parts or gaps E7V partner): as the sequence (P68871 with tags, fused parts or gaps E7V partner) above

In the case of `O=Cc1c(O)cccc1OCc1ccc(C(=O)O)cc1` [Tucaresol, 4[2-formyl-3-hydroxyphenoxymethyl] benzoic acid], the Half-life in series [1] is given as above 12 h.

Consider `CC(C)n1nccc1-c1ncccc1COc1cccc(O)c1C=O` [Voxelotor, reference compound], for which the “Antisickling effect under anoxia (in words)” value (shortened to “Antisickling effect”) in the series with SS cells [2] is listed as “lost its inherent antisickling effects remarkably under anoxic conditions”. Moreover, the “Hb Modification” value at HbS [3] (0.5 mM) is given as 55%; on HbS [3] (1 mM), 100%. Also, at HbS [3] (2 mM, samples of the anoxia study), the “Hb modification (in words)” value is “complete Hb modification to the high-O2-affinity form”. In [4], the “Partitioning into the RBC compartment” value was 90%. The results for the “P50 Shift (ΔP50)” value on Hb [5] (0.5 mM) and on Hb [5] (1 mM) were 41% and 80%, respectively. Besides, in the series on SS RBCs, the “pO2-dependent sickling inhibition (in words)” value is “completely prevent sickling at high pO2; also recorded: lost this capability at low pO2”. Further, the inhibition at 500 µM with SS cells [6] (0.5 mM) amounted to 56%. For the same compound, the inhibition at 1000 µM with SS cells [6] (1 mM) amounted to 98%. For the same compound, in [1], the Half-life was above 12 h.

For `COc1ccc(OCc2cccc(CO)n2)c(C=O)c1` [TD-7], the “Antisickling effect” value in the series on SS cells [2] is reported as “showed some antisickling effect under anoxia, it was significantly less potent than VZHE-039”. Moreover, the Hb Modification on HbS [7] (0.5 mM) is reported as 26%; on HbS [7] (1 mM), 45%; on HbS [7] (2 mM), 74%. In addition, the RBC sickling inhibition with SS cells [8] (0.5 mM) is reported as 16%; in the series on SS cells [8] (1 mM), 29%; in the series with SS cells [8] (2 mM), 85%. The “Time of maximum effect (P50-shift)” value at HbA was found to be 1 h. In addition, the “Reduction in activity (P50-shift) at 24 h” value on HbA (relative to maximum effect) is recorded as ~ 45%. Moreover, the P50-shift was 10% on Hb [9] (0.5 mM), 28% on Hb [9] (1 mM) and 48% at Hb [9] (2 mM).

`COc1cc(C=O)ccc1O` [Vanillin, vanillin]: the “Antisickling effect” value with SS cells [2] is “showed no effect under anoxic conditions”. Besides, at HbA (1-24 h), the “Time course of P50-shift (in words)” value is listed as “did not have any effects beyond 4 h”.
